# Values quoted from earlier work as cited in US20260263393A1, “CO[…], […] COMBINATION WITH N-ACYLETHANOLAMINES, AND USES THEREOF” (Clearmind Labs Corp., priority 2023, published 2026).
# Details: ibogaine administered to treat drug dependence
smiles,measurement,value
"CC[C@H]1CC2C[C@H]3c4[nH]c5ccc(OC)cc5c4CC[N@@](C2)C13 [ibogaine, Ibogaine]",reduction in drug craving (duration),up to several weeks
same,sustained resolution of the withdrawal syndromes (time to),12 to 18 h
